# Measurements from patent publication US6136842A, “Sulphur derivatives comprising an amide bond, method for preparing same, use thereof as drugs, and pharmaceutical compositions containing such derivatives” (Hoechst Marion Roussel, priority 1996, dated 2000).
# Molecular target: T1, endothelin-converting enzyme (ECE) (Homo sapiens, UniProt P42892)
# T1 sequence (P42892 1-770): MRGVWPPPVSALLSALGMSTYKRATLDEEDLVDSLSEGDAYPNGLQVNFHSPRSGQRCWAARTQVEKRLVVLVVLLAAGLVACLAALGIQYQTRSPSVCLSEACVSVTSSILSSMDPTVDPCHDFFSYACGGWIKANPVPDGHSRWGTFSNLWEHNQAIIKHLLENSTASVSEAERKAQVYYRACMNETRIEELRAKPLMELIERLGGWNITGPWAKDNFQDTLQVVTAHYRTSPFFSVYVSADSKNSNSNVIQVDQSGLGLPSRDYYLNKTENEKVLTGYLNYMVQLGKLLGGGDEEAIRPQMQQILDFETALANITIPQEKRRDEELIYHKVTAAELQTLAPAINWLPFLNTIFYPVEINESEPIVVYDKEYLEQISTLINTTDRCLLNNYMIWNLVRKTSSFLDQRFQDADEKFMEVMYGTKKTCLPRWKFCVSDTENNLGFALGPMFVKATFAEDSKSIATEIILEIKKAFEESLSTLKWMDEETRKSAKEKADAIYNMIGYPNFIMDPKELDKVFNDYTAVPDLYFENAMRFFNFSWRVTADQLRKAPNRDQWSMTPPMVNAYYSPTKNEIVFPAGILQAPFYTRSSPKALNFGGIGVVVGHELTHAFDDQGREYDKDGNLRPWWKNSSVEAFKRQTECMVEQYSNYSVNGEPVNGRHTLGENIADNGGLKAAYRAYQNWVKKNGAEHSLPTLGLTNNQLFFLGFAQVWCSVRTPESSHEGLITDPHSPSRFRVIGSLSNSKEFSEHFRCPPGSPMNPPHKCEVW
# Assay: Determination of the inhibitory effect of the endothelin-converting enzyme (ECE): cleavage of (2,3-^3 H)propionyl-b-ET-1(19-35)
# Format: biochemical
# Settings: purified ECE, pre-incubated 30 minutes at 37° C., Tris maleate buffer pH=6.5, incubation one hour at 37° C.
# Excerpt: Determination of the inhibitory effect of the endothelin-converting enzyme (ECE) A test is used, in which the product (2,3-^3 H)propionyl-b-ET-1(19-35) prepared as indicated below in a) is cleaved by ECE into the product (2,3-^3 H)propionyl-b-ET-1(19-21) in the presence of product P of which the inhibitory activity of ECE one wishes to determine as indicated below in b): the inhibitory activity of ECE of the product P will therefore be accordingly as high as the quantity of product of formula (II) formed, determined by counting the radioactivity, will be low. The operation is carried out as follows: b) Determination of the inhibitory activity of the endothelin-converting enzyme (ECE) […] The reaction is initiated by the addition of 10 μl of (2,3-^3 H)propionyl-b-ET-1(-19-35) prepared as indicated above in a), at a final concentration of 1.8.10^-12 M After incubation for one hour at 37° C., the reaction is stopped by the addition of 600 μl of ethyl acetate and the (2,3-^3 H)propionyl-b-ET-1(19-21) is extracted by mechanical agitation for 2 minutes. 300 μl of the organic phase is removed, 5 ml of liquid scintillator is added and the radioactivity is counted for 1 minute with a liquid scintillation counter. Each measurement is carried out in triplicate except for the ECE control (control enzyme, without the product the ECE inhibitory activity of which one wishes to test), for which the measurement is carried out six times. The percentage inhibition is calculated by establishing the relationship: [formula] The blank is carried out starting with the solution obtained without enzyme. The test was validated by its application to known inhibitors i.e. P1 which is phosphoramidon and P2 which is N-(phenylethylphosphonyl)-Leu-Trp (TAKEDA). From the cpm's obtained and by plotting the graph of the percentage of inhibition relative to the concentration of inhibitor (nM), the IC50 is calculated which therefore corresponds to the concentration which causes a 50% inhibition of ECE.
row,IC50 [nM],SMILES
1,70,"O=C(N[C@@H](Cc1ccc(-c2ccccc2)cc1)c1nnn[nH]1)[C@@H](CS)Cc1ccccc1 [Example 9, (S,S)N-(2-((1,1'-biphenyl)-4-yl)-1-(1H-tetrazol-5-yl)ethyl)-alpha-(mercaptomethyl)-benzenepropanamide]"
2,150,"O=C(N[C@@H](Cc1c[nH]c2c(OCc3ccccc3)cccc12)C(=O)O)C(CS)Cc1cccc(Br)c1 (stereo partly drawn) [Example 8, N-[3-(3-bromophenyl)-2-(mercaptomethyl)-1-oxopropyl]-7-(phenylmethoxy)-Tryptophan]"
3,120,"O=C(N[C@@H](Cc1ccc(-c2cccs2)cc1)C(=O)O)C(CS)Cc1cccc(Br)c1 (single isomer, unassigned) [Example 7A]"
